Laboratory results as given in paper PMC6346638, “Recognition of Peptidoglycan Fragments by the Transpeptidase PBP4 From Staphylococcus aureus” (Frontiers in Microbiology, 2019).
Entries after “also recorded” stand apart in the source; their conditions may differ. Non-standard residues stand in square brackets, D forms with d. No end group written: not given here.

Assays:
PBP4 [1] = test: X-ray crystallography, ligand soaking of PBP4 crystals; type: binding, Staphylococcus aureus; settings: soaking with ampicillin and synthetic pentapeptide stem
PBP4(S75C) [2] = test: X-ray crystallography, ligand soaking of PBP4(S75C) crystals; type: binding, Staphylococcus aureus; settings: soak with 1 mM ampicillin and 8 mM pentapeptide, 40–60 min; 1.86 Å
Description: PBP4(S75C) was crystallized using the sitting drop vapor diffusion method with streak seeding. Protein at 25–35 mg mL^−1 was added to precipitant solution (8 mM zinc chloride, 80 mM sodium acetate pH 5, 100 mM sodium fluoride, and 16% polyethylene glycol 6000) in a 1:1 (v/v) ratio and incubated at 23°C. Immediately after mixing the protein and precipitant solution, the drops were streak-seeded with a housecat whisker that had been swished through a drop containing PBP4(S75C) crystals. […] Crystals were then promptly harvested and stored in liquid nitrogen.
Data collection was performed under cryogenic temperatures (100 K) at the Advanced Light Source synchrotron (U.C. Berkeley) on beamline 5.0.2. Data from one crystal that diffracted to 1.9 Å resolution were processed using Xia2 (Winter et al., [2013]) and XDS (Kabsch, [2010]) with a space group of C121 and merged with Aimless in the CCP4 software package (Winn et al., [2011]). Phaser (McCoy et al., [2007]) was employed to solve the structure by molecular replacement using PDB ID 5TXI as the starting model. The Phenix suite of programs was used for model generation and refinement (Adams et al., [2010]). Briefly, AutoBuild was used with several iterative rounds of manual manipulation of the model with Coot (Emsley et al., [2010]) followed by refinement with Phenix.refine with TLS being used in the later stages of refinement.

[3] = test system: S. aureus laboratory mutant 27s; settings: deletion of PBP4 in mutant 27s; ref Leski and Tomasz, 2005; cited from earlier work
From the text: S. aureus PBP4 is an unusual class C PBP showing TPase activity in vivo (Loskill et al., [2014]; Hamilton et al., [2017]) and in vitro (Qiao et al., [2014]; Srisuknimit et al., [2017]) in addition to its expected CPase activity.

[4] = test system: ceftobiprole-resistant Staphylococcus aureus strain (CRB); settings: pbp4 mutations giving E183A and F241R; ref Banerjee et al., 2010; cited from earlier work
From the text: The replacement of E183 by an alanine disrupts the Van-der-Waals interaction between this residue and ...

PBP4(S75C) [5] = test: PBP4(S75C) acylation by imipenem, native mass spectrometry; type: binding, Staphylococcus aureus; settings: 1.25 mM imipenem, ~23°C, 30 min, pH 6; MS
Description: For mass spectrometry analysis, samples were thawed and diluted 500 times in 5% acetonitrile and 0.1% formic acid. 5 μL of each sample was injected onto a 5-mm C4 column connected to a Waters Xevo GS-2 QTof mass spectrometer via a NanoAquity UPLC system. Samples were eluted in a 2-min gradient from 5 to 100% acetonitrile at a flow rate of 20 μL min^−1. Mass spectra (Supplementary Figure S3) were summed and peak masses deconvoluted using Waters' MassLynx software (V4.1).

PBP4(S75C) [6] = test: Liquid-state NMR titration (15N-BEST-TROSY chemical shift perturbation); type: binding, Staphylococcus aureus; settings: lactoyl-tetrapeptide up to 52 molar equivalents, 326 μM protein; 25°C, 50 mM potassium phosphate pH 6.5
Description: NMR Titration Experiments
Interaction studies with ^15N-labeled PBP4(S75C) and different substrates were monitored by superimposition of ^15N-BEST-TROSY spectra at 25°C for different substrate-to-protein ratio. Synthetic peptide stems and peptidoglycan fragments were extensively dialyzed against water using a Spectra/PorTM dialysis membrane with a 100–500 Da cutoff (Spectrum Laboratories, Inc.) and lyophilized before preparation of a few-mM stock solution in the protein buffer, with 50 mM potassium phosphate at pH 6.5. A 326-μM solution of PBP4(S75C) was titrated with 2, 8, 22, and 52 molar equivalents of tetrapeptide. […] CcpNmr was used to monitor protein chemical shift perturbations (CSP) for every assigned amide resonance by superimposition of the ^15N-BEST-TROSY spectra. CSPs (Δδ) were calculated on a per-residue basis for the highest substrate-to-protein ratio as follows:
where γN and γH are the ^1H and ^15N gyromagnetic ratios, respectively, and δ^XPBP4(S75C):sub , and δ^XPBP4(S75C) are the protein resonance chemical shift value in the presence and absence, respectively, of the substrate at the highest ratio.
The following substrates were added at 25 °C on 150 -µM PBP4(S75C) solution
in 50 mM potassium phosphate buffer, pH 6.5: (A) Tetrapeptide at approximately 52 molar […]
overlapped residues, for which CSPs could not be determined.

PBP4 [7] = settings: 10 μM PBP4, 10 mM Tris/HCl pH 7.5, 10 mM MgCl2, 0.1% Triton X-100, 37°C overnight; HPLC
Description: Assays were carried out in a final volume of 50 μL containing 10 mM Tris/HCl at pH 7.5, 10 mM MgCl2, 0.1% Triton X-100, and 10 μM PBP4 or PBP4(S75C). A ~5 mg mL^−1 suspension of PG or 25 μL of a ~5 mg mL^−1 solution of muropeptides were added and the reaction mixture was incubated at 37°C overnight. The enzymatic reaction was stopped by boiling the samples for 10 min. Muropeptides were reduced and analyzed by HPLC as described (Boneca et al., [1997]).

[8] = molecular target: 15N-labeled PBP4(S75C) from Staphylococcus aureus, His-tag not cleaved (NMR sample) (S. aureus); test: NMR titration; 15N-BEST-TROSY spectra at 25°C; 326 μM 15N-labeled PBP4(S75C) titrated with 2, 8, 22 and 52 molar equivalents of unlabeled tetrapeptide; 50 mM potassium phosphate pH 6.5

CC1(C)S[C@@H]2[C@H](NC(=O)[C@H](N)c3ccccc3)C(=O)N2[C@H]1C(=O)O [ampicillin]
electron density of soaked ligand, PBP4 crystals (PBP4 [1]): unable to identify electron density | electron density of soaked ligand, PBP4(S75C) crystals (PBP4(S75C) [2]): unable to identify electron density

CO/N=C(\C(=O)N[C@@H]1C(=O)N2C(C(=O)O)=CCS[C@H]12)c1csc(N)n1 [ceftizoxime]
susceptibility on deletion of PBP4 [3]: increase in ceftizoxime susceptibility

Nc1nc(/C(=N/O)C(=O)N[C@@H]2C(=O)N3C(C(=O)O)=C(/C=C4\CCN([C@@H]5CCNC5)C4=O)CS[C@H]23)ns1 [ceftobiprole]
resistance of CRB strain [4]: resistant

C[C@@H](O)[C@H]1C(=O)N2C(C(=O)O)=C(SCCN=CN)C[C@H]12 [imipenem]
acylation of PBP4(S75C) (PBP4(S75C) [5]): binds covalently to PBP4S75C, to form a stable acylenzyme; also recorded: sensitive to acylation

HO-D-Lac-L-Ala-D-iGln-L-Lys(Gly)5-D-Ala-COOH [lactoyl-tetrapeptide]
chemical shift perturbations for the amide resonances of PBP4(S75C) (PBP4(S75C) [6]): did not create any significant chemical shift perturbations

HO-D-Lac-L-Ala-D-iGln-[L-Lys(Gly)5]-D-Ala-D-Ala-COOH [pentapeptide, synthetic branched lactoyl-peptide resembling the native S. aureus PG stem]
electron density of soaked ligand, PBP4 crystals (PBP4 [1]): unable to identify electron density | electron density of soaked ligand, PBP4(S75C) crystals (PBP4(S75C) [2]): unable to identify electron density

disaccharide pentapeptide(Gly5) [disaccharide pentapeptide(Gly5) (peak5)]
DD-CPase activity of PBP4: conversion of monomeric muropeptide (PBP4 [7]): nearly quantitatively converted to disaccharide tetrapeptide(Gly5) (peak A)

B1: HO-D-Lac-L-Ala-D-iGln-L-Lys(Gly)5-D-Ala-COOH tetrapeptide (peptide)
chain 1: {HO‑D‑Lac}-A[diGln]K[dA]-OH
chain 2: GGGGG
modifications: not fully specified (some residues); also: chain 2 (Gly)5 attached to Lys side chain
Kd [8]: > 110 mM
